The values below are quoted from earlier work in patent publication US12441685B2, “Compounds and methods for treating cancer” (DANA-FARBER CANCER INSTITUTE, INC., priority 2015, dated 2025).

The conditions of the data set: Phase II study, patients with NBCCS (Tang et al., 2012).

For the compound `CS(=O)(=O)c1ccc(C(=O)Nc2ccc(Cl)c(-c3ccccn3)c2)c(Cl)c1` [vismodegib], the “participants who ceased treatment due to serious adverse effects” value is 14 of 26.
